According to ChEMBL document CHEMBL1150239, “Molecular characteristics for solid-state limited solubility” (J Med Chem, 2008):

Columns and labels:
[1] = buffer, pH 10
[2] = Dissociation constant, pKa of the compound; format: physicochemical

| Structure (SMILES) | logS0 [1] | pKa [2] |
| --- | --- | --- |
| CCN1c2ncccc2C(=O)N(C)c2ccc(Cl)nc21 | -4.11 | – |
| CCN1c2ccccc2N(C)C(=O)c2cccnc21 | -3.32 | – |
| CN1C(=O)c2cccnc2N(C(C)(C)C)c2ncccc21 | -4.85 | – |
| COC(=O)c1cc2nc([S+]([O-])Cc3nccc(OC)c3OC)[nH]c2cc1C (stereo not drawn) | -4.41 | – |
| CCCCn1c(C)nc2c1c(=O)n(C)c(=O)n2C | -1.75 | – |
| CCCCCC1(CC)C(=O)NC(=O)NC1=O | -2.34 | – |
| CCOC(=O)OCn1c([S+]([O-])Cc2nccc(OC)c2OC)nc2cc(C(=O)OC)c(C)cc21 (stereo not drawn) | -5.21 | – |
| C=CCC1(CCCC)C(=O)NC(=O)NC1=O | -2.11 | – |
| CCN1c2ncccc2C(=O)N(C)c2c(C)cc(OC)nc21 | -2.62 | – |
| Cc1ccnc2c1NC(C#N)c1cccnc1N2C1CC1 (stereo not drawn) | -4.74 | – |
| Cc1ccc2c(c1)C(=O)Nc1cc(N)ccc1O2 | -3.93 | – |
| CCCCC1(CC=C(C)C)C(=O)NC(=O)NC1=O | -3.55 | – |
| CN1C(=O)c2cccnc2Oc2ccccc21 | -3.76 | – |
| CC(C(=O)O)c1ccc(N2Cc3ccccc3C2=O)cc1 (single isomer, unassigned; (+)) [INDOPROFEN] | -4.72 | 4.6 |
| C=CCOc1ccc(CC(=O)O)cc1Cl [ALCLOFENAC] | -3.13 | – |
| CCC[S+]([O-])CCCN(CC)CC(O)COc1ccc(C#N)cc1 (stereo not drawn) [ALMOKALANT] | -1.17 | – |
| C=CCc1ccccc1OCC(O)CNC(C)C (stereo not drawn) [ALPRENOLOL] | -2.83 | – |
| CCCCC[C@H](O)/C=C/[C@H]1[C@H](O)CC(=O)[C@@H]1CCCCCCC(=O)O [ALPROSTADIL] | -3.67 | – |
| CCOC(=O)c1ccc(N)cc1 [BENZOCAINE] | -2.34 | – |
| O=C(O)c1ccccc1 [BENZOIC ACID] | -1.58 | – |
| C[C@H]1C[C@H]2[C@@H]3CCC4=CC(=O)C=C[C@]4(C)[C@@]3(F)[C@@H](O)C[C@]2(C)[C@@]1(O)C(=O)CO [BETAMETHASONE] | -3.77 | – |
| C=C(Br)CC1(C(C)CC)C(=O)NC(=O)NC1=O (stereo not drawn) [BUTALLYLONAL] | -2.65 | – |
| CCCNC(=O)NS(=O)(=O)c1ccc(Cl)cc1 [CHLORPROPAMIDE] | -3.3 | 4.8 |
| COC(=O)[C@H]1[C@@H](OC(=O)c2ccccc2)C[C@@H]2CC[C@H]1N2C [COCAINE] | -2.25 | – |
| C[C@]12C[C@H](O)[C@H]3[C@@H](CCC4=CC(=O)CC[C@@]43C)[C@@H]1CC[C@@H]2C(=O)CO [CORTICOSTERONE] | -3.28 | – |
| CC(=O)OCC(=O)[C@@]1(O)CC[C@H]2[C@@H]3CCC4=CC(=O)CC[C@]4(C)[C@H]3C(=O)C[C@@]21C [CORTISONE ACETATE] | -4.21 | – |
| CCC1(C2=CCCCC2)C(=O)NC(=O)NC1=O [CYCLOBARBITAL] | -2.12 | – |
| CC(C)Nc1cccnc1N1CCN(C(=O)c2cc3cc(NS(C)(=O)=O)ccc3[nH]2)CC1 [DELAVIRDINE] | -5.74 | – |

| Structure (SMILES) | logS0 [1] | pKa [2] |
| --- | --- | --- |
| NCCN1C(=O)CN=C(c2ccccc2F)c2cc(Cl)ccc21 [DESALKYLFLURAZEPAM] | -3.72 | 11.6 |
| C[C@@H]1C[C@H]2[C@@H]3CCC4=CC(=O)C=C[C@]4(C)[C@@]3(F)[C@@H](O)C[C@]2(C)[C@@]1(O)C(=O)CO [DEXAMETHASONE] | -3.59 | – |
| CCCCC[C@H](O)/C=C/[C@H]1[C@H](O)CC(=O)[C@@H]1C/C=C\CCCC(=O)O [DINOPROSTONE] | -2.47 | – |
| CC(C)N(CCC(C(N)=O)(c1ccccc1)c1ccccn1)C(C)C (stereo not drawn) [DISOPYRAMIDE] | -2.38 | 10.1 |
| CCOC(=O)c1ccc(O)cc1 [ETHYLPARABEN] | -2.38 | 8.3 |
| COC1=CC(=O)C[C@@H](C)[C@]12Oc1c(Cl)c(OC)cc(OC)c1C2=O [GRISEOFULVIN] | -4.83 | – |
| CCC1(C2=CCCCCC2)C(=O)NC(=O)NC1=O [HEPTABARBITAL] | -2.91 | – |
| CC(=O)OCC(=O)[C@@]1(O)CC[C@H]2[C@@H]3CCC4=CC(=O)CC[C@]4(C)[C@H]3[C@@H](O)C[C@@]21C [HYDROCORTISONE ACETATE] | -4.34 | – |
| CC(=O)N1CCN(c2ccc(OC[C@H]3CO[C@](Cn4ccnc4)(c4ccc(Cl)cc4Cl)O3)cc2)CC1 [KETOCONAZOLE] | -3.8 | – |
| CC(CCc1ccccc1)NCC(O)c1ccc(O)c(C(N)=O)c1 (stereo not drawn) [LABETALOL] | -3.41 | – |
| O=C1Nc2ccc(Cl)cc2C(c2ccccc2Cl)=NC1O (stereo not drawn) [LORAZEPAM] | -3.74 | 11.5 |
| Cc1ccccc1N1C(=O)c2cc(S(N)(=O)=O)c(Cl)cc2NC1C (stereo not drawn) [METOLAZONE] | -4.33 | – |
| COc1ccc2[nH]c([S+]([O-])Cc3ncc(C)c(OC)c3C)nc2c1 (stereo not drawn) [OMEPRAZOLE] | -3.4 | 8.9 |
| Nc1ccc(/N=N/c2ccccc2)c(N)n1 [PHENAZOPYRIDINE] | -4.53 | – |
| O=C1NC(=O)C(c2ccccc2)(c2ccccc2)N1 [PHENYTOIN] | -4.15 | – |
| CN1C(C(=O)Nc2ccccn2)=C(O)c2ccccc2S1(=O)=O [PIROXICAM] | -4.03 | – |
| CC(=O)OCC(=O)[C@@]1(O)CC[C@H]2[C@@H]3CCC4=CC(=O)C=C[C@]4(C)[C@H]3[C@@H](O)C[C@@]21C [PREDNISOLONE ACETATE] | -4.37 | – |
| COc1cc(NC(C)CCCN)c2ncccc2c1 (stereo not drawn) [PRIMAQUINE] | -2.52 | – |
| CCN(CC)CCOC(=O)c1ccc(N)cc1 [PROCAINE] | -1.78 | – |
| CC(C)NCC(O)COc1cccc2ccccc12 (stereo not drawn) [PROPRANOLOL] | -3.92 | – |
| CCC1(C2=CC3CCC(C2)C3)C(=O)NC(=O)NC1=O (stereo not drawn) [REPOSAL] | -2.7 | – |
| O=C(O)c1ccccc1O [SALICYLIC ACID] | -1.8 | – |
| C=CCC1(C(C)CCC)C(=O)NC(=O)NC1=O (stereo not drawn) [SECOBARBITAL] | -2.36 | 7.8 |
| CC(=O)OCC(=O)[C@@]1(O)[C@H](OC(C)=O)C[C@H]2[C@@H]3CCC4=CC(=O)C=C[C@]4(C)[C@@]3(F)[C@@H](O)C[C@@]21C [TRIAMCINOLONE DIACETATE] | -4.31 | – |
| Cc1nnc2n1-c1ccc(Cl)cc1C(c1ccccc1Cl)=NC2 [TRIAZOLAM] | -4.04 | – |
| COc1cc2c(N)nc(N3CCN(C(=O)OCC(C)(C)O)CC3)nc2c(OC)c1OC [TRIMAZOSIN] | -3.64 | – |
| CC/C=C(\C)C1(CC)C(=O)NC(=O)NC1=O [VINBARBITAL] | -2.3 | – |
